{"source": "patent US4831151A", "about": "“Antimicrobial imidazolium derivatives” (Hoffmann-La Roche Inc., priority 1985, dated 1989)", "key": {"Litomosoides carinii": {"test_system": "Litomosoides carinii", "assay": "Filaricidal activity in cotton rats infected with Litomosoides carinii", "assay_type": "in vivo, Litomosoides carinii in cotton rats (Sigmodon hispidus)", "conditions": "s.c., treated 14 weeks after infection, dissected 42 days after treatment; for ED90: Litomosoides carinii, sc, 1008 h, read-out: ED90 (dosage at which 90% of the worms removed from the pleural cavity are dead)", "method": "(§1) The filaricidal activity of the compounds of formula I can be determined, for example, on cotton rats (Sigmodon hispidus) which have been infected with Litomosoides carinii. The infection with L. carinii is transmitted by the blood-sucking mite Bdellonyssus bacoti in which the development of the microfilaria to infectious larvae takes place. The cotton rats are infected by exposing them to bites of infected mites. 14 weeks after the infection groups of 2-4 animals are treated subcutaneously with the compound to be tested. 42 days after treatment with the compound to be tested the experimental animals are dissected, whereby the adult filaria are removed from the pleural cavity. Living and dead or encapsulated worms are separated from one another and weighed. The filaricidal activity is expressed as the percentage proportion of dead macrofilaria per treatment group. The ED90 is then determined by means of […] analysis using the values from different dosage groups. The ED90 is that dosage at which 90% of the worms removed from the pleural cavity are dead. In the following Table there are compiled the results which have been obtained in the previously described test with representative members of the class of compound defined by general formula I. Moreover, the Table contains data concerning the acute toxicity of some of these compounds in mg per kg in the case of single oral administration to mice."}, "[1]": {"assay": "Acute toxicity, single oral administration to mice", "conditions": "mouse, in vivo, p.o.", "method": "as §1"}}, "note": "Where a name gives a salt, the structure may show the parent alone.", "data": [{"compound": "CCc1n(N=Cc2ccc(N(C)C)cc2)cc[n+]1N=Cc1ccc([N+](=O)[O-])cc1", "values": [{"measurement": "ED90", "setting": "Litomosoides carinii", "result": "< 1", "unit": "mg/kg"}]}, {"compound": "CCc1n(N=Cc2ccc(N(C)C)cc2)cc[n+]1N=Cc1ccc(N(C)C)cc1", "note": "[1,3-bis[[(p-dimethylamino)benzylidene]amino]-2-ethylimidazolium acetate]", "values": [{"measurement": "ED90", "setting": "Litomosoides carinii", "result": 0.25, "unit": "mg/kg"}]}, {"compound": "CCc1n(N=Cc2ccc(N(C)C)c3ccccc23)cc[n+]1N=Cc1ccc(N(C)C)c2ccccc12.[Cl-]", "note": "[1,3-bis[[[4-(dimethylamino)-1-naphthyl]methylidene]amino]-2-ethyl-imidazolium chloride]", "values": [{"measurement": "LD50", "setting": "[1]", "result": "312 to 625", "unit": "mg/kg"}, {"measurement": "ED90", "setting": "Litomosoides carinii", "result": 3, "unit": "mg/kg"}]}, {"compound": "CCc1n(N=Cc2ccc(N(C)C)cc2)cc[n+]1N=Cc1ccc(N(C)C)cc1.[Cl-]", "note": "[1,3-bis[[p-(dimethyl-amino)benzylidene]amino]-2-ethylimidazolium chloride]", "values": [{"measurement": "LD50", "setting": "[1]", "result": "62.5 to 125", "unit": "mg/kg"}, {"measurement": "ED90", "setting": "Litomosoides carinii", "result": 0.4, "unit": "mg/kg"}]}, {"compound": "CCCc1n(N=Cc2ccc(N(C)C)cc2)cc[n+]1N=Cc1ccc(N(C)C)cc1.[Cl-]", "note": "[1,3-bis[[p-(dimethylamino)benzylidene]amino]-2-propyl-imidazolium chloride]", "values": [{"measurement": "LD50", "setting": "[1]", "result": "62.5 to 125", "unit": "mg/kg"}, {"measurement": "ED90", "setting": "Litomosoides carinii", "result": "< 0.25", "unit": "mg/kg"}]}, {"compound": "CCc1n(N=Cc2ccc(N(CC)CC)cc2)cc[n+]1N=Cc1ccc(N(CC)CC)cc1", "note": "[1,3-bis[[p-diethylamino)benzylidene]amino]-2-ethyl-imidazolium chloride]", "values": [{"measurement": "ED90", "setting": "Litomosoides carinii", "result": 0.75, "unit": "mg/kg"}]}, {"compound": "CCCCc1n(N=Cc2ccc(N(C)C)cc2)cc[n+]1N=Cc1ccc(N(C)C)cc1.[Cl-]", "note": "[2-butyl-1,3-bis[[p-(dimethylamino)benzylidene]amino]imidazolium chloride]", "values": [{"measurement": "ED90", "setting": "Litomosoides carinii", "result": "< 0.25", "unit": "mg/kg"}]}, {"compound": "Cc1n(N=Cc2ccc(N(C)C)cc2)cc[n+]1N=Cc1ccc(N(C)C)cc1", "note": "[drawing 12, 1,3-bis[[p-(dimethylamino)benzylidene]amino]-2-methylimidazolium salts]", "values": [{"measurement": "LD50", "setting": "[1]", "result": "80 to 156", "unit": "mg/kg"}, {"measurement": "ED90 (dosage at which 90% of the worms removed from the pleural cavity are dead)", "setting": "Litomosoides carinii", "result": 1.6, "unit": "mg/kg"}]}, {"compound": "Cc1n(N=Cc2ccc(N(C)C)cc2)cc[n+]1N=Cc1ccc(N(C)C)cc1", "note": "[drawing 13, 1,3-bis[[(p-dimethylamino)benzylidene]amino]-2-methylimidazolium acetate]", "values": [{"measurement": "ED90", "setting": "Litomosoides carinii", "result": 0.85, "unit": "mg/kg"}]}]}
